In patent publication US20080009418A1, “Selective Inhibitors” (Alchemia LTD., priority 2004, published 2008):

Legend:
Human κ-Opioid (KOP) = biological target: T1, Human κ-Opioid (KOP) (Homo sapiens, UniProt P41145); assay: Radioligand binding, human κ-opioid (KOP) membranes, filtration, [3H]-Diprenorphine; conditions: compound at 10 μM; for A2 radioligand binding inhibition: human κ-opioid (KOP) membranes
T1 construct: purchased Perkin Elmer Biosignal
How it was run: (§1)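 Membranes from cloned human receptors were incubated with compound and radioligand for 1 hour at room temperature. Bound ligand was collected on 0.3% PEI-soaked filters, washed with cold 50 mM Tris-HCl pH 7.4, and counted by scintillation. Percent inhibition was computed against DMSO totals and reference-ligand nonspecific wells.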

Human melanocortin (MC5) = biological target: T2, Human melanocortin (MC5) (Homo sapiens, UniProt P33032); assay: Radioligand binding, human melanocortin MC5 membranes, FlashPlate, [125I]-NDP-αMSH; conditions: compound at 10 μM; for A5 radioligand binding inhibition: human melanocortin MC5 membranes
T2 construct: purchased Perkin Elmer Biosignal
How it was run: (§2)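 Cloned human receptor membranes were coated onto FlashPlate wells and incubated with radioligand and compound (added from a 0.5 mM DMSO daughter plate) for 1 hour at room temperature in the dark. Scintillation counting gave percent inhibition, with DMSO defining total and reference ligand defining non-specific binding.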

Human Melanocortin (MC3) = biological target: T3, Human Melanocortin (MC3) (Homo sapiens, UniProt P41968); assay: Radioligand binding, human melanocortin MC3 membranes, FlashPlate, [125I]-NDP-αMSH; conditions: compound at 10 μM; for A3 radioligand binding inhibition: human melanocortin MC3 membranes
T3 construct: purchased Perkin Elmer Biosignal
How it was run: as §2

Human μ-opioid (MOP) = biological target: T4, Human μ-opioid (MOP) (Homo sapiens, UniProt P35372); assay: Radioligand binding, human μ-opioid (MOP) membranes, FlashPlate, [3H]-Naloxone; conditions: compound at 10 μM; for A7 radioligand binding inhibition: human μ-opioid (MOP) membranes
T4 construct: purchased Perkin Elmer Biosignal
How it was run: as §2

Mouse urotensin (mUR2) = biological target: T5, Mouse urotensin (mUR2) (Mus musculus, UniProt Q8VIH9); assay: Radioligand binding, mouse urotensin mUR2 membranes, FlashPlate, [125I]-Urotensin II; conditions: compound at 10 μM; for A11 radioligand binding inhibition: mouse urotensin mUR2 membranes
T5 construct: purchased Perkin Elmer Biosignal
T5 sequence (Q8VIH9 1-385): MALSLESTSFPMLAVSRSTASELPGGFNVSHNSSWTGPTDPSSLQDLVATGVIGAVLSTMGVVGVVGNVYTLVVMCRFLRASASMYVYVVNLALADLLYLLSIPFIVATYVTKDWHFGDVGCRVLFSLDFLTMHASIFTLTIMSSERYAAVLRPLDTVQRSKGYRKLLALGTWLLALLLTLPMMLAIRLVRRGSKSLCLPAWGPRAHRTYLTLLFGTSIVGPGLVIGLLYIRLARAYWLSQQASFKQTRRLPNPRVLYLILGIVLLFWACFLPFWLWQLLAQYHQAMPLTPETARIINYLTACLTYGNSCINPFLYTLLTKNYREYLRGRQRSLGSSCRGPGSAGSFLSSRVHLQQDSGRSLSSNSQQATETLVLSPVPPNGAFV
How it was run: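 Cloned mouse urotensin (mUR2) receptor membranes from Perkin Elmer Biosignal were immobilized in FlashPlate microplates using a proprietary coating. Each well got 19.5 μl buffer, then 0.5 μl of DMSO, reference ligand, or compound. Adding 5 μl of [125I]-Urotensin II, diluted to 5× final concentration in binding buffer, started binding. Plates were sealed with TopSeal-A and incubated 1 hour at room temperature in the dark. Wells were counted for 30 seconds each on a TopCount after a 60-second delay, and percentage inhibition was calculated.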

[1] = biological target: T6, Human neuropeptide Y (NPY-Y1) (Homo sapiens, UniProt P25929); assay: Radioligand binding, human neuropeptide Y NPY-Y1 membranes, FlashPlate, [125I]-PYY; conditions: compound at 10 μM
T6 construct: purchased Perkin Elmer Biosignal
T6 sequence (P25929 1-384): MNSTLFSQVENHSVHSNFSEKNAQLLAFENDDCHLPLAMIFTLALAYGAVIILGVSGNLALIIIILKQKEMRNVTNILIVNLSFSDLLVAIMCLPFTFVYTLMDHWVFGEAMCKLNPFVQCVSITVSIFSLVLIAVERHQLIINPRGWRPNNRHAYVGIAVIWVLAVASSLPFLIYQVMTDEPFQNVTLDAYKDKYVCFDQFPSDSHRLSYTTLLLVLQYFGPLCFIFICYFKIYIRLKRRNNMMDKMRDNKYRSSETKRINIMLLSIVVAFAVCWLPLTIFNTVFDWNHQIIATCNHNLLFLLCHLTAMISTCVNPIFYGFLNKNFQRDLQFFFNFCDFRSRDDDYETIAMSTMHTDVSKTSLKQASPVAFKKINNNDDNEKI
How it was run: as §2

Human Melanocortin (MC4) = biological target: T7, Human Melanocortin (MC4) (Homo sapiens, UniProt P32245); assay: Radioligand binding, human melanocortin MC4 membranes, FlashPlate, [125I]-NDP-αMSH; conditions: compound at 10 μM; for A4 radioligand binding inhibition: human melanocortin MC4 membranes
T7 construct: purchased Perkin Elmer Biosignal
How it was run: as §2

[2] = biological target: T8, Human melanin-concentrating hormone (MCH1) (Homo sapiens, UniProt Q99705); assay: Radioligand binding, human melanin-concentrating hormone MCH1 membranes, FlashPlate, [125I]-S36057; conditions: compound at 10 μM; for A6 radioligand binding inhibition: human MCH1 membranes; for A6: inhibition of radioligand binding, human melanin-concentrating hormone (MCH1): [125I]-S36057
T8 construct: purchased Perkin Elmer Biosignal
How it was run: as §2

Human δ-opioid (DOP) = biological target: T9, Human δ-opioid (DOP) (Homo sapiens, UniProt P41143); assay: Radioligand binding, human δ-opioid (DOP) membranes, FlashPlate, [3H]-Bremazocine; conditions: compound at 10 μM; for A1 radioligand binding inhibition: human δ-opioid (DOP) membranes
T9 construct: purchased Perkin Elmer Biosignal
How it was run: as §2

Human neurokinin (NK1) = biological target: T10, Human neurokinin (NK1) (Homo sapiens, UniProt P25103); assay: Radioligand binding, human neurokinin NK1 membranes, filtration, [125I]-Substance P; conditions: compound at 10 μM; for A8 radioligand binding inhibition: human neurokinin NK1 membranes
T10 construct: purchased Perkin Elmer Biosignal
How it was run: as §1

Human opioid (ORL1) = biological target: T11, Human opioid (ORL1) (Homo sapiens, UniProt P41146); assay: Radioligand binding, human opioid ORL1 membranes, FlashPlate, [125I]-Nociceptin; conditions: compound at 10 μM
T11 construct: purchased Perkin Elmer Biosignal
How it was run: as §2

T1 sequence (P41145 whole entry): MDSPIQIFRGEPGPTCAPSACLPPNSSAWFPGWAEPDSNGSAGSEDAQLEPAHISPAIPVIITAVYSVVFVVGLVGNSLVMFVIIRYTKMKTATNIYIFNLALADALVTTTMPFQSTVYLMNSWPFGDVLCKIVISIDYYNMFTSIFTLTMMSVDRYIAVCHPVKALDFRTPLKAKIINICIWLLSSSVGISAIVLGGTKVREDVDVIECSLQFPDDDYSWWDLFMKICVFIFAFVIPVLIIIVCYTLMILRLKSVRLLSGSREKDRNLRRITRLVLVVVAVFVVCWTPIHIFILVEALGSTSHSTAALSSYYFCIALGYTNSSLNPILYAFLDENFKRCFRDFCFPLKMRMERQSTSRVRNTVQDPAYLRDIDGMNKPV
T3 sequence (P41968 whole entry): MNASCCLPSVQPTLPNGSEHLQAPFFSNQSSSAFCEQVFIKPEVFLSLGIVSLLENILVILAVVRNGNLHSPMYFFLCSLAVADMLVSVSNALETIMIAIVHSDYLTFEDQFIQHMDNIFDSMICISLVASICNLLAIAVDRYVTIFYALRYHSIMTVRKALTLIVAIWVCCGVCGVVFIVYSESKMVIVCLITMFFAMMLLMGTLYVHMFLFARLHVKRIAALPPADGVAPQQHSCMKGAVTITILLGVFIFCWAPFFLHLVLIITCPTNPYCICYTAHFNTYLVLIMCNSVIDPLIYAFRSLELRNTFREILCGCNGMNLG
T2 sequence (P33032 whole entry): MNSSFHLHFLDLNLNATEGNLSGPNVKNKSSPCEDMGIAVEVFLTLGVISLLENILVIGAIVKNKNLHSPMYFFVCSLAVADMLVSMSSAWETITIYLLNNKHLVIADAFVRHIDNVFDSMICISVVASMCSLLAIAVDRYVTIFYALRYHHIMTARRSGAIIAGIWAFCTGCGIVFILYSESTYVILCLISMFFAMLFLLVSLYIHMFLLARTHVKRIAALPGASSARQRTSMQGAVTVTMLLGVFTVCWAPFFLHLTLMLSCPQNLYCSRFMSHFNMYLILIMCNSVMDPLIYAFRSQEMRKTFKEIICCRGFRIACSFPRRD
T10 sequence (P25103 whole entry): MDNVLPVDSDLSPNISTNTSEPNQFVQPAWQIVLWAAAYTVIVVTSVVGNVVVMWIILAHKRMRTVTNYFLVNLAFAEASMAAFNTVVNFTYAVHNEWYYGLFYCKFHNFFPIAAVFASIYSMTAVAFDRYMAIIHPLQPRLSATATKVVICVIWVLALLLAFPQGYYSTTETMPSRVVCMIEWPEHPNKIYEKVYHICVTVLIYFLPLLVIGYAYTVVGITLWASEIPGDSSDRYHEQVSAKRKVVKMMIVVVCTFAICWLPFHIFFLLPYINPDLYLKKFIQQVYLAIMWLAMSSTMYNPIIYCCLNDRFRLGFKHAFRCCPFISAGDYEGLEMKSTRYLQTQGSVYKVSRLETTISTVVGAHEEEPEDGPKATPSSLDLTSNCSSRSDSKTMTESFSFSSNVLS
T4 sequence (P35372 whole entry): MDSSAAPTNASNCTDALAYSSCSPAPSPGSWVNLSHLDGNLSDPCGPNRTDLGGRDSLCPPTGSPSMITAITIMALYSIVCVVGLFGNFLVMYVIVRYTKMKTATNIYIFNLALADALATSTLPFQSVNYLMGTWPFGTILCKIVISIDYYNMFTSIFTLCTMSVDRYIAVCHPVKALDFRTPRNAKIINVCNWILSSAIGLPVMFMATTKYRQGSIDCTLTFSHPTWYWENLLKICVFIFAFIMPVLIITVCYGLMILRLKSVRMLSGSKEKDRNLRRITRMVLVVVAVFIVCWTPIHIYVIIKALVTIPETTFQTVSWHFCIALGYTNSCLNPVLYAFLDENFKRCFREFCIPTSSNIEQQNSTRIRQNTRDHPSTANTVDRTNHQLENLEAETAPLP
T8 sequence (Q99705 whole entry): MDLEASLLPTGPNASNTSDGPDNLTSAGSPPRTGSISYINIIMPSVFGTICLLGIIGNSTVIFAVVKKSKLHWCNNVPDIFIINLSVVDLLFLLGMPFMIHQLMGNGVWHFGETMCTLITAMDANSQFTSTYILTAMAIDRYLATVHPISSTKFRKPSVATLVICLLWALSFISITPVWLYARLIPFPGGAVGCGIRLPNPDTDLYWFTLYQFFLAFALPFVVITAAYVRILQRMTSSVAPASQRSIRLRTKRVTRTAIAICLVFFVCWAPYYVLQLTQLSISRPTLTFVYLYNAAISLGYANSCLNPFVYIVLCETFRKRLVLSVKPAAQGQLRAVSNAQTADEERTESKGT
T7 sequence (P32245 whole entry): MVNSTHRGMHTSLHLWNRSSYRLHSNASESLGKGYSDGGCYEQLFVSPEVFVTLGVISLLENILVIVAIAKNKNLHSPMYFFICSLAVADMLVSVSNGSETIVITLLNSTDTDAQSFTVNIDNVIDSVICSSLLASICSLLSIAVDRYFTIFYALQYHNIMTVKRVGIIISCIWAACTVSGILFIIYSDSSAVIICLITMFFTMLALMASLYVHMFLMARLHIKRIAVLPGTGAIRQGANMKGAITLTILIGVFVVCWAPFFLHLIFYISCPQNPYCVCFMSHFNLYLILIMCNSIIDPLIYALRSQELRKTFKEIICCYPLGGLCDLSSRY
T11 sequence (P41146 whole entry): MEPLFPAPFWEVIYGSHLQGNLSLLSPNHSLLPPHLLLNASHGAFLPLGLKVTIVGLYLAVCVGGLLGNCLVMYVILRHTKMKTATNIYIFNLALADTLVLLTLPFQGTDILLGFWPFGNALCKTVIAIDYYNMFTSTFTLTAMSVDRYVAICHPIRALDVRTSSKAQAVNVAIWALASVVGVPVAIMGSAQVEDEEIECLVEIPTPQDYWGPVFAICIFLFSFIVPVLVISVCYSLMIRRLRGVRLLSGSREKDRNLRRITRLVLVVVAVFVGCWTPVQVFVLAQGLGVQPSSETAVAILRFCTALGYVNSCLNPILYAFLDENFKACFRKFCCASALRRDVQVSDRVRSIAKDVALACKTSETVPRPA
T9 sequence (P41143 whole entry): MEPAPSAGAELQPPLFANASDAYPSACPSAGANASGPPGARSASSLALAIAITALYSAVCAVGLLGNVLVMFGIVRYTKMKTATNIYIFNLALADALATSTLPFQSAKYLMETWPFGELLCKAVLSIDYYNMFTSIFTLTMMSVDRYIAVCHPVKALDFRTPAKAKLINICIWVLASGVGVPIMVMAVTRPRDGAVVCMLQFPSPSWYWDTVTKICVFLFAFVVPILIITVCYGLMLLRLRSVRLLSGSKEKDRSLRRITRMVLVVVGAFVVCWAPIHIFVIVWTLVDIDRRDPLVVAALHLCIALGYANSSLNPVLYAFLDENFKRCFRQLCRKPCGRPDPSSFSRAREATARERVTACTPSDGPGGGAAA

Structure (SMILES)	A2 radioligand binding inhibition (Human κ-Opioid (KOP))	A5 radioligand binding inhibition (Human melanocortin (MC5))	A3 radioligand binding inhibition (Human Melanocortin (MC3))	A7 radioligand binding inhibition (Human μ-opioid (MOP))	A11 radioligand binding inhibition (Mouse urotensin (mUR2))	A9 radioligand binding inhibition ([1]; human NPY-Y1 membranes)	A4 radioligand binding inhibition (Human Melanocortin (MC4))	A6 radioligand binding inhibition [2]	A1 radioligand binding inhibition (Human δ-opioid (DOP))	A8 radioligand binding inhibition (Human neurokinin (NK1))	A10 radioligand binding inhibition (Human opioid (ORL1); human ORL1 membranes)	A2: inhibition of radioligand binding, human κ-opioid (KOP) (Human κ-Opioid (KOP); [3H]-Diprenorphine)	A5: inhibition of radioligand binding, human melanocortin (MC5) (Human melanocortin (MC5); [125I]-NDP-αMSH)	A11: inhibition of radioligand binding, mouse urotensin (mUR2) (Mouse urotensin (mUR2); [125I]-Urotensin II)	A9: inhibition of radioligand binding, human neuropeptide Y (NPY-Y1) ([1]; [125I]-PYY)	A4: inhibition of radioligand binding, human melanocortin (MC4) (Human Melanocortin (MC4); [125I]-NDP-αMSH)	A6: inhibition of radioligand binding, human melanin-concentrating hormone (MCH1) [2]	A1: inhibition of radioligand binding, human δ-opioid (DOP) (Human δ-opioid (DOP); [3H]-Bremazocine)	A8: inhibition of radioligand binding, human neurokinin (NK1) (Human neurokinin (NK1); [125I]-Substance P)	further results
CO[C@H]1[C@H](O)[C@@H](COCc2ccccc2)OC(OCc2ccc(-c3ccccc3)cc2)[C@@H]1NC(=O)CCCN (stereo partly shown) [compound 60]	− (“−” indicates less than 50% inhibition at 10 μM)	+ (“+” indicates greater than 50% inhibition at 10 μM)	− (“−” indicates less than 50% inhibition at 10 μM)	− (“−” indicates less than 50% inhibition at 10 μM)	− (“−” indicates less than 50% inhibition at 10 μM)	− (“−” indicates less than 50% inhibition at 10 μM)	− (“−” indicates less than 50% inhibition at 10 μM)	− (“−” indicates less than 50% inhibition at 10 μM)	− (“−” indicates less than 50% inhibition at 10 μM)	− (“−” indicates less than 50% inhibition at 10 μM)	− (“−” indicates less than 50% inhibition at 10 μM)	–	–	–	–	–	–	–	–	–
NCCC(=O)N[C@H]1C(OCc2ccc3ccccc3c2)O[C@H](COCc2ccc3ccccc3c2)[C@@H](O)[C@@H]1OCc1ccc2ccccc2c1 (stereo partly shown) [compound 443]	–	–	–	–	–	–	–	–	–	–	–	–	–	–	–	–	–	–	–	A2: inhibition of radioligand binding (Human κ-Opioid (KOP); [3H]-Diprenorphine, human KOP membranes): − (“−” indicates less than 50% inhibition at 10 μM); A5: inhibition of radioligand binding (Human melanocortin (MC5); [125I]-NDP-αMSH, human MC5 membranes): + (“+” indicates greater than 50% inhibition at 10 μM); A3: inhibition of radioligand binding (Human Melanocortin (MC3); [125I]-NDP-αMSH, human MC3 membranes): + (“+” indicates greater than 50% inhibition at 10 μM); A7: inhibition of radioligand binding (Human μ-opioid (MOP); [3H]-Naloxone, human MOP membranes): − (“−” indicates less than 50% inhibition at 10 μM); A11: inhibition of radioligand binding (Mouse urotensin (mUR2); [125I]-Urotensin II, mouse mUR2 membranes): − (“−” indicates less than 50% inhibition at 10 μM); A9: inhibition of radioligand binding ([1]; [125I]-PYY, human NPY-Y1 membranes): − (“−” indicates less than 50% inhibition at 10 μM); A4: inhibition of radioligand binding (Human Melanocortin (MC4); [125I]-NDP-αMSH, human MC4 membranes): + (“+” indicates greater than 50% inhibition at 10 μM); A6: inhibition of radioligand binding ([2]; [125I]-S36057, human MCH1 membranes): + (“+” indicates greater than 50% inhibition at 10 μM); A1: inhibition of radioligand binding (Human δ-opioid (DOP); [3H]-Bremazocine, human DOP membranes): − (“−” indicates less than 50% inhibition at 10 μM); A8: inhibition of radioligand binding (Human neurokinin (NK1); [125I]-Substance P, human NK1 membranes): + (“+” indicates greater than 50% inhibition at 10 μM); A10: inhibition of radioligand binding (Human opioid (ORL1); [125I]-Nociceptin, human ORL1 membranes): + (“+” indicates greater than 50% inhibition at 10 μM)
N=C(N)NCC(=O)NC1C(OCc2ccc(Cl)cc2)OC(COCc2ccccc2)C(O)C1OCc1ccc(Cl)cc1 (single isomer, unassigned) [compound 509]	–	–	–	–	–	–	–	–	–	–	–	− (“−” indicates less than 50% inhibition at 10 μM)	+ (“+” indicates greater than 50% inhibition at 10 μM)	− (“−” indicates less than 50% inhibition at 10 μM)	− (“−” indicates less than 50% inhibition at 10 μM)	+ (“+” indicates greater than 50% inhibition at 10 μM)	+ (“+” indicates greater than 50% inhibition at 10 μM)	− (“−” indicates less than 50% inhibition at 10 μM)	+ (“+” indicates greater than 50% inhibition at 10 μM)	A3: inhibition of radioligand binding, human melanocortin (MC3) (Human Melanocortin (MC3); [125I]-NDP-αMSH, 10 µM): − (“−” indicates less than 50% inhibition at 10 μM); A7: inhibition of radioligand binding, human μ-opioid (MOP) (Human μ-opioid (MOP); [3H]-Naloxone, 10 µM): + (“+” indicates greater than 50% inhibition at 10 μM); A10: inhibition of radioligand binding, human opioid (ORL1) (Human opioid (ORL1); [125I]-Nociceptin, 10 µM): − (“−” indicates less than 50% inhibition at 10 μM)
N=C(N)NCCCC(=O)NC1COC(COCc2ccc3ccccc3c2)C(O)C1OCc1ccc(Cl)cc1 (stereo not shown) [compound 541]	–	–	–	–	–	–	–	–	–	–	–	− (“−” indicates less than 50% inhibition at 10 μM)	− (“−” indicates less than 50% inhibition at 10 μM)	− (“−” indicates less than 50% inhibition at 10 μM)	− (“−” indicates less than 50% inhibition at 10 μM)	− (“−” indicates less than 50% inhibition at 10 μM)	− (“−” indicates less than 50% inhibition at 10 μM)	− (“−” indicates less than 50% inhibition at 10 μM)	+ (“+” indicates greater than 50% inhibition at 10 μM)	A3: inhibition of radioligand binding, human melanocortin (MC3) (Human Melanocortin (MC3); [125I]-NDP-αMSH): − (“−” indicates less than 50% inhibition at 10 μM); A7: inhibition of radioligand binding, human μ-opioid (MOP) (Human μ-opioid (MOP); [3H]-Naloxone): − (“−” indicates less than 50% inhibition at 10 μM); A10: inhibition of radioligand binding, human opioid (ORL1) (Human opioid (ORL1); [125I]-Nociceptin): − (“−” indicates less than 50% inhibition at 10 μM)
CO[C@H]1[C@H](O)[C@@H](COCc2ccccc2)OC(OCc2ccc(-c3ccccc3)cc2)[C@@H]1NC(=O)CCNC(=N)N (stereo partly shown) [compound 59]	+ (“+” indicates greater than 50% inhibition at 10 μM)	+ (“+” indicates greater than 50% inhibition at 10 μM)	− (“−” indicates less than 50% inhibition at 10 μM)	+ (“+” indicates greater than 50% inhibition at 10 μM)	− (“−” indicates less than 50% inhibition at 10 μM)	− (“−” indicates less than 50% inhibition at 10 μM)	− (“−” indicates less than 50% inhibition at 10 μM)	− (“−” indicates less than 50% inhibition at 10 μM)	− (“−” indicates less than 50% inhibition at 10 μM)	+ (“+” indicates greater than 50% inhibition at 10 μM)	− (“−” indicates less than 50% inhibition at 10 μM)	–	–	–	–	–	–	–	–	–
